# Values of other authors as cited in PubChem BioAssay AID1259409 (Chemical Carcinogenesis Research Information System (CCRIS), 2018).
# Tested on: rodent chemically induced tumor inhibition, incidence and multiplicity
# Assay: CCRIS tumor inhibitor studies
# Settings: Dose [Inhibitor]: 0
compound,measurement,setting,value
O=c1cc(-c2ccccc2)oc2ccccc12,"tumour outcome (control, treated, inhibition, significance)","Carcinogen: 7,12-DIMETHYLBENZ[A]ANTHRACENE, 57-97-6, 45 NMOL IN 0.2 ML ACETONE APPLIED 5 MIN PRIOR TO CARCINOGEN (STUDY DURATION: 21 WK), Route [Inhibitor]: DERMAL, Species: MOUSE, Strain/Sex: SENCAR/FEMALE, Target Tissue: Type of Lesion: SKIN: PAPILLOMA, Dose [Carcinogen]: 10 NMOL IN 0.2 ML ACETONE ONCE, Promoter: 12-O-TETRADECANOYLPHORBOL-13-ACETATE, 16561-29-8","79%, 93%, -18%, not calculated"
same,"tumour outcome (control, treated, inhibition, significance)","Carcinogen: 7,12-DIMETHYLBENZ[A]ANTHRACENE, 57-97-6, 450 NMOL IN 0.2 ML ACETONE APPLIED 5 MIN PRIOR TO CARCINOGEN (STUDY DURATION: 21 WK), Route [Inhibitor]: DERMAL, Species: MOUSE, Strain/Sex: SENCAR/FEMALE, Target Tissue: Type of Lesion: SKIN: PAPILLOMA, Dose [Carcinogen]: 10 NMOL IN 0.2 ML ACETONE ONCE, Promoter: 12-O-TETRADECANOYLPHORBOL-13-ACETATE, 16561-29-8","79%, 100%, -27%, not calculated"
same,"tumour outcome (control, treated, inhibition, significance)","Carcinogen: 7,12-DIMETHYLBENZ[A]ANTHRACENE, 57-97-6, 4500 NMOL IN 0.2 ML ACETONE APPLIED 5 MIN PRIOR TO CARCINOGEN (STUDY DURATION: 21 WK), Route [Inhibitor]: DERMAL, Species: MOUSE, Strain/Sex: SENCAR/FEMALE, Target Tissue: Type of Lesion: SKIN: PAPILLOMA, Dose [Carcinogen]: 10 NMOL IN 0.2 ML ACETONE ONCE, Promoter: 12-O-TETRADECANOYLPHORBOL-13-ACETATE, 16561-29-8","79%, 80%, -1%, not calculated"
same,"tumour outcome (control, treated, inhibition, significance)","Carcinogen: 7,14-DIMETHYLBENZO[A,H]ANTHRACENE, 35335-07-0, 45 NMOL IN 0.2 ML ACETONE APPLIED 5 MIN PRIOR TO CARCINOGEN (STUDY DURATION: 21 WK), Route [Inhibitor]: DERMAL, Species: MOUSE, Strain/Sex: SENCAR/FEMALE, Target Tissue: Type of Lesion: SKIN: PAPILLOMA, Dose [Carcinogen]: 47.5 NMOL IN 0.2 ML ACETONE ONCE, Promoter: 12-O-TETRADECANOYLPHORBOL-13-ACETATE, 16561-29-8","97%, 97%, 0%"
same,"tumour outcome (control, treated, inhibition, significance)","Carcinogen: 7,14-DIMETHYLBENZO[A,H]ANTHRACENE, 35335-07-0, 450 NMOL IN 0.2 ML ACETONE APPLIED 5 MIN PRIOR TO CARCINOGEN (STUDY DURATION: 21 WK), Route [Inhibitor]: DERMAL, Species: MOUSE, Strain/Sex: SENCAR/FEMALE, Target Tissue: Type of Lesion: SKIN: PAPILLOMA, Dose [Carcinogen]: 47.5 NMOL IN 0.2 ML ACETONE ONCE, Promoter: 12-O-TETRADECANOYLPHORBOL-13-ACETATE, 16561-29-8","97%, 97%, 0%"
same,"tumour outcome (control, treated, inhibition, significance)","Carcinogen: 7,14-DIMETHYLBENZO[A,H]ANTHRACENE, 35335-07-0, 4500 NMOL IN 0.2 ML ACETONE APPLIED 5 MIN PRIOR TO CARCINOGEN (STUDY DURATION: 21 WK), Route [Inhibitor]: DERMAL, Species: MOUSE, Strain/Sex: SENCAR/FEMALE, Target Tissue: Type of Lesion: SKIN: PAPILLOMA, Dose [Carcinogen]: 47.5 NMOL IN 0.2 ML ACETONE ONCE, Promoter: 12-O-TETRADECANOYLPHORBOL-13-ACETATE, 16561-29-8","97%, 68%, 30%, not calculated"
same,"tumour outcome (control, treated, inhibition, significance)","Carcinogen: DIBENZO[A,H]ANTHRACENE, 53-70-3, 45 NMOL IN 0.2 ML ACETONE APPLIED 5 MIN PRIOR TO CARCINOGEN (STUDY DURATION: 21 WK), Route [Inhibitor]: DERMAL, Species: MOUSE, Strain/Sex: SENCAR/FEMALE, Target Tissue: Type of Lesion: SKIN: PAPILLOMA, Dose [Carcinogen]: 200 NMOL IN 0.2 ML ACETONE ONCE, Promoter: 12-O-TETRADECANOYLPHORBOL-13-ACETATE, 16561-29-8","100%, 93%, 7%, not calculated"
same,"tumour outcome (control, treated, inhibition, significance)","Carcinogen: DIBENZO[A,H]ANTHRACENE, 53-70-3, 450 NMOL IN 0.2 ML ACETONE APPLIED 5 MIN PRIOR TO CARCINOGEN (STUDY DURATION: 21 WK), Route [Inhibitor]: DERMAL, Species: MOUSE, Strain/Sex: SENCAR/FEMALE, Target Tissue: Type of Lesion: SKIN: PAPILLOMA, Dose [Carcinogen]: 200 NMOL IN 0.2 ML ACETONE ONCE, Promoter: 12-O-TETRADECANOYLPHORBOL-13-ACETATE, 16561-29-8","100%, 86%, 14%, not calculated"
same,"tumour outcome (control, treated, inhibition, significance)","Carcinogen: DIBENZO[A,H]ANTHRACENE, 53-70-3, 4500 NMOL IN 0.2 ML ACETONE APPLIED 5 MIN PRIOR TO CARCINOGEN (STUDY DURATION: 21 WK), Route [Inhibitor]: DERMAL, Species: MOUSE, Strain/Sex: SENCAR/FEMALE, Target Tissue: Type of Lesion: SKIN: PAPILLOMA, Dose [Carcinogen]: 200 NMOL IN 0.2 ML ACETONE ONCE, Promoter: 12-O-TETRADECANOYLPHORBOL-13-ACETATE, 16561-29-8","100%, 93%, 7%, not calculated"
same,"tumour outcome (control, treated, inhibition, significance)","1000 PPM IN DIET BEGINNING 8 WK PRIOR TO CARCINOGEN AND CONTINUING FOR 6 WK POST CARCINOGEN (STUDY DURATION: 68 WK), Route [Inhibitor]: ORAL, Species: FISH, Strain/Sex: RAINBOW TROUT, Target Tissue: Type of Lesion: LIVER: HEPATOCELLULAR CARCINOMA, Dose [Carcinogen]: 20 PPB IN DIET FOR 2 WK, Promoter: NONE USED","43/118 (36%), 45/120 (38%), -5%, not significant"
